Results: ChEMBL document CHEMBL1128817, “Synthesis of bisindolylmaleimide macrocycles” (Bioorg Med Chem Lett, 1995)
pIC50: −log10 of the molar value.

What was measured:
[1] = molecular target: Protein kinase C beta type (Homo sapiens, UniProt P05771); assay: Inhibition of Protein kinase C beta 2
[2] = Selectivity ratio of IC50 of PKCalpha to PKCbeta II
[3] = Selectivity ratio of IC50 of PKA to PKC
Protein kinase C (PKC) = assay: Inhibition of rat brain PKC

Sequence of Protein kinase C beta type (P05771 whole entry): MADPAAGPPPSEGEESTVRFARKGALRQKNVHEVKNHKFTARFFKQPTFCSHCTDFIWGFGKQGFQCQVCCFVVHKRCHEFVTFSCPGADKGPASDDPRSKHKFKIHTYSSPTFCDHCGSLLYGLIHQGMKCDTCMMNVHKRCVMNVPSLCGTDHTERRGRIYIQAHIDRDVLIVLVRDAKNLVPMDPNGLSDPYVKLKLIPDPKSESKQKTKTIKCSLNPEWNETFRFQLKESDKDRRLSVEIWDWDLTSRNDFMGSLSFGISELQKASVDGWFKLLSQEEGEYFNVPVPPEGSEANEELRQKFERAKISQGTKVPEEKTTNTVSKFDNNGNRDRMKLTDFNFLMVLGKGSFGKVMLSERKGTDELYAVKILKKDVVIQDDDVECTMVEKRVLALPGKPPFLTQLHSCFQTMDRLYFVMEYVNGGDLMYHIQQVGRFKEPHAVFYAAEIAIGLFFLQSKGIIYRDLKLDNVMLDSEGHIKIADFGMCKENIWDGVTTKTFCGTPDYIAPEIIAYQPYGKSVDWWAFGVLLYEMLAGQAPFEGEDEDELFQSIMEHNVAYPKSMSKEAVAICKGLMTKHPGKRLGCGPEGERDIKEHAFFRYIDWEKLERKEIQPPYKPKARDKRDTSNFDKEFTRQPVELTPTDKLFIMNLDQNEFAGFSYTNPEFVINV

pIC50 [1]: 6.57 | Ratio [2]: 25 | Ratio [3]: > 10000 | IC50 (Protein kinase C (PKC)): 6400 nM
SMILES: O=C1NC(=O)C2=C1c1cn(c3ccccc13)CCCOC(CO)CCn1cc2c2ccccc21 (centres undefined)
